# Experimental data taken from publication PMC4490784, “Compensatory induction of MYC expression by sustained CDK9 inhibition via a BRD4-dependent mechanism” (eLife, 2015).
# Columns and labels:
# Test in all cases: KINOMEscan binding assay
# [1] = molecular target: T1, ABL1(H396P)-nonphosphorylated (Homo sapiens, UniProt P00519, H396P); conditions: read-out: % Retention on Solid Support
# T1 construct: purchased DiscoveRx KINOMEscan
# In short: (§1)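 Two inhibitor concentrations (1 and 10 µM) were run. Binding to each kinase was assessed by competition with an active site-directed probe, covering upwards of 400 kinases.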
# CDK3 = molecular target: T2, CDK3 (Homo sapiens, UniProt Q00526)
# T2 construct: purchased DiscoveRx KINOMEscan
# In short: as §1
# ERK1 = molecular target: T3, ERK1 (Homo sapiens, UniProt P27361); conditions: read-out: % Retention on Solid Support
# T3 construct: purchased DiscoveRx KINOMEscan
# In short: as §1
# ERN1 = molecular target: T4, ERN1 (Homo sapiens, UniProt O75460); conditions: read-out: % Retention on Solid Support
# T4 construct: purchased DiscoveRx KINOMEscan
# In short: as §1
# HUNK = molecular target: T5, HUNK (Homo sapiens, UniProt P57058); conditions: read-out: % Retention on Solid Support
# T5 construct: purchased DiscoveRx KINOMEscan
# In short: as §1
# IKK-alpha = molecular target: T6, IKK-alpha (Homo sapiens, UniProt O15111); conditions: read-out: % Retention on Solid Support
# T6 construct: purchased DiscoveRx KINOMEscan
# In short: as §1
# IKK-beta = molecular target: T7, IKK-beta (Homo sapiens, UniProt O14920); conditions: read-out: % Retention on Solid Support
# T7 construct: purchased DiscoveRx KINOMEscan
# In short: as §1
# IRAK3 = molecular target: T8, IRAK3 (Homo sapiens, UniProt Q9Y616); conditions: read-out: % Retention on Solid Support
# T8 construct: purchased DiscoveRx KINOMEscan
# In short: as §1
# LIMK1 = molecular target: T9, LIMK1 (Homo sapiens, UniProt P53667); conditions: read-out: % Retention on Solid Support
# T9 construct: purchased DiscoveRx KINOMEscan
# In short: as §1
# MAP3K15 = molecular target: T10, MAP3K15 (Homo sapiens, UniProt Q6ZN16); conditions: read-out: % Retention on Solid Support
# T10 construct: purchased DiscoveRx KINOMEscan
# In short: as §1
# MAP4K4 = molecular target: T11, MAP4K4 (Homo sapiens, UniProt O95819); conditions: read-out: % Retention on Solid Support
# T11 construct: purchased DiscoveRx KINOMEscan
# In short: as §1
# MKK7 = molecular target: T12, MKK7 (Homo sapiens, UniProt O14733); conditions: 1 µM i-CDK9
# T12 construct: purchased DiscoveRx KINOMEscan
# In short: as §1
# MST1 = molecular target: T13, MST1 (Homo sapiens, UniProt Q13043)
# T13 construct: purchased DiscoveRx KINOMEscan
# In short: as §1
# MST1R = molecular target: T14, MST1R (Homo sapiens, UniProt Q04912); conditions: read-out: % Retention on Solid Support
# T14 construct: purchased DiscoveRx KINOMEscan
# In short: as §1
# MST3 = molecular target: T15, MST3 (Homo sapiens, UniProt Q9Y6E0)
# T15 construct: purchased DiscoveRx KINOMEscan
# In short: as §1
# PFPK5(P.falciparum) = molecular target: T16, PFPK5(P.falciparum) (Plasmodium falciparum, UniProt P61075); conditions: 1 µM i-CDK9; read-out: % Retention on Solid Support
# T16 construct: purchased DiscoveRx KINOMEscan
# In short: as §1
# PIK3CA(E545A) = molecular target: T17, PIK3CA(E545A) (Homo sapiens, UniProt P42336, E545A); conditions: read-out: % Retention on Solid Support
# T17 construct: purchased DiscoveRx KINOMEscan
# In short: as §1
# PIK3CG = molecular target: T18, PIK3CG (Homo sapiens, UniProt P48736); conditions: read-out: % Retention on Solid Support
# T18 construct: purchased DiscoveRx KINOMEscan
# In short: as §1
# PIM3 = molecular target: T19, PIM3 (Homo sapiens, UniProt Q86V86); conditions: read-out: % Retention on Solid Support
# T19 construct: purchased DiscoveRx KINOMEscan
# In short: as §1
# PRKCD = molecular target: T20, PRKCD (Homo sapiens, UniProt Q05655); conditions: read-out: % Retention on Solid Support
# T20 construct: purchased DiscoveRx KINOMEscan
# In short: as §1
# [2] = molecular target: T21, RSK1(Kin.Dom.1-N-terminal) (Homo sapiens, UniProt Q15418); conditions: read-out: % Retention on Solid Support
# T21 construct: RSK1(Kin.Dom.1-N-terminal); purchased DiscoveRx KINOMEscan
# In short: as §1
# SRPK1 = molecular target: T22, SRPK1 (Homo sapiens, UniProt Q96SB4); conditions: read-out: % Retention on Solid Support
# T22 construct: purchased DiscoveRx KINOMEscan
# In short: as §1
# TRKC = molecular target: T23, TRKC (Homo sapiens, UniProt Q16288); conditions: read-out: % Retention on Solid Support
# T23 construct: purchased DiscoveRx KINOMEscan
# In short: as §1
# [3] = molecular target: T24, TYK2(JH1domain-catalytic) (Homo sapiens, UniProt P29597)
# T24 construct: TYK2(JH1domain-catalytic); purchased DiscoveRx KINOMEscan
# In short: as §1
# T14 sequence (Q04912 25-1400): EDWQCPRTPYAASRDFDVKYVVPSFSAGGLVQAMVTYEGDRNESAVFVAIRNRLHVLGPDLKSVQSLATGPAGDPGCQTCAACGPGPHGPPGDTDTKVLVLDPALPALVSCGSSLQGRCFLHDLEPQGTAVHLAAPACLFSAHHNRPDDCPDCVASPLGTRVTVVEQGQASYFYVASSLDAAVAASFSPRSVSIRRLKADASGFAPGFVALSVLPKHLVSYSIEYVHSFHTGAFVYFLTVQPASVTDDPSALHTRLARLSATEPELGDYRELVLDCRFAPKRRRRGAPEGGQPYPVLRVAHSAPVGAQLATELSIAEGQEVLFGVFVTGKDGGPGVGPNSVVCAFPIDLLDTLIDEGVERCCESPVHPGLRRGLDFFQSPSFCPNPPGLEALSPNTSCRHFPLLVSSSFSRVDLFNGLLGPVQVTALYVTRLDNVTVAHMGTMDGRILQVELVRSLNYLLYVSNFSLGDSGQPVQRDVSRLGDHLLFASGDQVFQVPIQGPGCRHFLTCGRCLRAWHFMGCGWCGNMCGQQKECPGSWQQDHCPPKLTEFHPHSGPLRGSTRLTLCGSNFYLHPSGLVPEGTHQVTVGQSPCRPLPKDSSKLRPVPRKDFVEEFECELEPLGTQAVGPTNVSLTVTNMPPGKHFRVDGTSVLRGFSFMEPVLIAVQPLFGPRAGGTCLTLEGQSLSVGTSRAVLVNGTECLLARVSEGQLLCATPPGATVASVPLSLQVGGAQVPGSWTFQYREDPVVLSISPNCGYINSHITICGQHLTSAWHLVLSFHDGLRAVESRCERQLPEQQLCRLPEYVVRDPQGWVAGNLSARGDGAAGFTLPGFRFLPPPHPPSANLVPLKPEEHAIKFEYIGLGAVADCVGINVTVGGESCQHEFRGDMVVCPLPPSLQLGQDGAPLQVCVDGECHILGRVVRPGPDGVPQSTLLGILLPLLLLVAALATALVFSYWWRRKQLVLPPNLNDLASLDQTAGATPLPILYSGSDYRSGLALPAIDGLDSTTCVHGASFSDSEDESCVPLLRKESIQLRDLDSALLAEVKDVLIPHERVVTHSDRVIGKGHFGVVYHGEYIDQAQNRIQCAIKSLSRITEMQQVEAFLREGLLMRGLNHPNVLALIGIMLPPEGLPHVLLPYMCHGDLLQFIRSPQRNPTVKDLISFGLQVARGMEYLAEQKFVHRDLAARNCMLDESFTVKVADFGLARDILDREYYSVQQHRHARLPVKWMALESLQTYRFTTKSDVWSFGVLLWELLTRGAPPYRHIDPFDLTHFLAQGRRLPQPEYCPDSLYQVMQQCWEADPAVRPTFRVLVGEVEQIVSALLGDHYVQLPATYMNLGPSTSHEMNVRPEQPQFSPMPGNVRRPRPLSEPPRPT
# T21 sequence (Q15418 1-391 limits assumed): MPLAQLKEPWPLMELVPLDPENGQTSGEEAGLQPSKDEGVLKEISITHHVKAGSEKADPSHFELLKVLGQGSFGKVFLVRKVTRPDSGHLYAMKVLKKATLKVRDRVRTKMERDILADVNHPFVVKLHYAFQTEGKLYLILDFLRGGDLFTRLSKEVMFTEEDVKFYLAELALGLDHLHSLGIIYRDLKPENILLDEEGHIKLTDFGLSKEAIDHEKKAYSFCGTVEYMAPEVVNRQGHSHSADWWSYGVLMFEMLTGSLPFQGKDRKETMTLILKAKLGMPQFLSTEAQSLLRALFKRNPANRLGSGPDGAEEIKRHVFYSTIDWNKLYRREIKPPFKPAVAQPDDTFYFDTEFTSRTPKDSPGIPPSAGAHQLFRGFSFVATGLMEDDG
# T7 sequence (O14920 whole entry): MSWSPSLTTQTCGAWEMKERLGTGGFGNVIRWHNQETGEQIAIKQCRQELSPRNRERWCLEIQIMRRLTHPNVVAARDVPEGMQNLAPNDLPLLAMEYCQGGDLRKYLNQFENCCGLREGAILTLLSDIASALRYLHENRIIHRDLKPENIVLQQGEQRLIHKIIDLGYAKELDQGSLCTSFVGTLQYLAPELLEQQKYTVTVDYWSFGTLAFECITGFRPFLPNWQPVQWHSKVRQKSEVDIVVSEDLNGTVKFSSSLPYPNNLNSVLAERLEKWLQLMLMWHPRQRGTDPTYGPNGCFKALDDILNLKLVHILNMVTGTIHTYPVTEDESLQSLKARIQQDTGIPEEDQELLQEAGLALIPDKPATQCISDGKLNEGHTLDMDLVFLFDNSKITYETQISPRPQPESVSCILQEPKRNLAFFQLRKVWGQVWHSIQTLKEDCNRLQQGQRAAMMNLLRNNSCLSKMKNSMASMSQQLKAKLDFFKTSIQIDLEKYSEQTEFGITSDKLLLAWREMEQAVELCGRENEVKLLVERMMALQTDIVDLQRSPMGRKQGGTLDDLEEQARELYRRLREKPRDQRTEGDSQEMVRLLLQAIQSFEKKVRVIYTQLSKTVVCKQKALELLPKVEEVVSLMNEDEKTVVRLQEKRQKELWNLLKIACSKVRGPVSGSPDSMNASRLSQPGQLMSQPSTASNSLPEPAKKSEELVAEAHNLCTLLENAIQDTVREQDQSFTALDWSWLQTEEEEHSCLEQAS
# T18 sequence (P48736 whole entry): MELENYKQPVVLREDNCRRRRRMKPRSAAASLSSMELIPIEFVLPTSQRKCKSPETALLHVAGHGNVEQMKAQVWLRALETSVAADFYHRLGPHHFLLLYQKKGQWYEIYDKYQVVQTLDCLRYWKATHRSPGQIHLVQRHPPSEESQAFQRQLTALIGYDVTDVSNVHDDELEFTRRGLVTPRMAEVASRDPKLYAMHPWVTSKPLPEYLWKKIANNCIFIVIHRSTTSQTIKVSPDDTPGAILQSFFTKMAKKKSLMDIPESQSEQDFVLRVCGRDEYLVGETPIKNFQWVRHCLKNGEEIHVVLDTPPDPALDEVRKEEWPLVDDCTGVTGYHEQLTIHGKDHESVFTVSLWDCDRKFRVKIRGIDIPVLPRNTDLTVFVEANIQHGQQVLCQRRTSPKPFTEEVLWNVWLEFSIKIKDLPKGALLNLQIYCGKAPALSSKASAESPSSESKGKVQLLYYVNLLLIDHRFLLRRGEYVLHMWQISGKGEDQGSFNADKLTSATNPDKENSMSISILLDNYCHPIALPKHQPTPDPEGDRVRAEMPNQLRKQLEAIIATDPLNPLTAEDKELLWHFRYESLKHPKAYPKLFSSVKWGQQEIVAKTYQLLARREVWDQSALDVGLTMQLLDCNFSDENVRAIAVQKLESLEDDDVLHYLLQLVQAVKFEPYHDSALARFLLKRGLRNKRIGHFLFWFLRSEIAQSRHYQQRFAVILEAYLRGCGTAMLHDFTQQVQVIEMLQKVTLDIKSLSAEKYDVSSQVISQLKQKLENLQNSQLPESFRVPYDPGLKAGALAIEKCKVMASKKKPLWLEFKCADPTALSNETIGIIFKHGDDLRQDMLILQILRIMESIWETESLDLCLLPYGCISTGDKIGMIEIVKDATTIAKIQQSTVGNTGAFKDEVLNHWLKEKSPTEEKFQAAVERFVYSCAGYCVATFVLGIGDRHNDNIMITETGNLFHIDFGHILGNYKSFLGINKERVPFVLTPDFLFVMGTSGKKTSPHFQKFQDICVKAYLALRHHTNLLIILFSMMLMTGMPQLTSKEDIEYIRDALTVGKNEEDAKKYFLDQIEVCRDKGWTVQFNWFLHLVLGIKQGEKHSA
# T5 sequence (P57058 whole entry): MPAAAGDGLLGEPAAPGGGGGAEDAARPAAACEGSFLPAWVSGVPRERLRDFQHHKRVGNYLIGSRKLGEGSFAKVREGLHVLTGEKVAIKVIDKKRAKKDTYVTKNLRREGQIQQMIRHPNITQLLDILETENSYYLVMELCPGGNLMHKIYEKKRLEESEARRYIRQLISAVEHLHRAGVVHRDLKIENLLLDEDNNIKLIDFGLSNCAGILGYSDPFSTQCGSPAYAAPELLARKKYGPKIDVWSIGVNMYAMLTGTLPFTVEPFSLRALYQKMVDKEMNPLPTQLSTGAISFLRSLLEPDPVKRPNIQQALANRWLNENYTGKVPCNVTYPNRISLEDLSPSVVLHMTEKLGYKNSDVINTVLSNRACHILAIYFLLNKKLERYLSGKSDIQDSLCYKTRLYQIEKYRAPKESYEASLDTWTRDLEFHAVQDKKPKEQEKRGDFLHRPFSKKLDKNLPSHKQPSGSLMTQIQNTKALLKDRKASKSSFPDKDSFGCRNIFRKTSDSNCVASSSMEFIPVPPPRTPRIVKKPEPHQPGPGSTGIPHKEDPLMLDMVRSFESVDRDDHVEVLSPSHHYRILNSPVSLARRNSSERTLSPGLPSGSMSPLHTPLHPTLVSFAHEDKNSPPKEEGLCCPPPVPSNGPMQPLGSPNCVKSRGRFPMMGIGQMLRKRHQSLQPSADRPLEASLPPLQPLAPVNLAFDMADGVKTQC
# T3 sequence (P27361 whole entry): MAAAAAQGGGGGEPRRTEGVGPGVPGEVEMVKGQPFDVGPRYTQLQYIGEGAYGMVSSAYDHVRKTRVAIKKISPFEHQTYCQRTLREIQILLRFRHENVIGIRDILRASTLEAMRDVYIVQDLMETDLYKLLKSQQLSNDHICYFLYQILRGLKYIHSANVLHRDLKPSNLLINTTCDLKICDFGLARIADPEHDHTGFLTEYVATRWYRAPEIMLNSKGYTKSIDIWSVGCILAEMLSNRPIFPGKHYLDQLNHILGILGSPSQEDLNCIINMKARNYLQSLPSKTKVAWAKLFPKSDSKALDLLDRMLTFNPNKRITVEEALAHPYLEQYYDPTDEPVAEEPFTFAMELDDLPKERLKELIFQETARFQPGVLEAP
compound,measurement,setting,value
"N[C@H]1CC[C@H](Nc2cc(-c3cccc(NCc4cccc(F)c4)n3)c(Cl)cn2)CC1 [i-CDK9, N2′-(trans-4-aminocyclohexyl)-5′-chloro-N6-(3-fluorobenzyl)-2,4′-bipyridine-2′,6-diamine]",remaining binding at 1 µM,[1]; 1 µM i-CDK9,45%
same,remaining binding at 10 µM,[1]; 10 µM i-CDK9,97%
same,% Retention on Solid Support,CDK3; 1 µM i-CDK9,57%
same,% Retention on Solid Support,CDK3; 10 µM i-CDK9,16%
same,remaining binding at 1 µM,ERK1; 1 µM i-CDK9,100%
same,remaining binding at 10 µM,ERK1; 10 µM i-CDK9,93%
same,remaining binding at 1 µM,ERN1; 1 µM i-CDK9,100%
same,remaining binding at 10 µM,ERN1; 10 µM i-CDK9,62%
same,remaining binding at 1 µM,HUNK; 1 µM i-CDK9,86%
same,remaining binding at 10 µM,HUNK; 10 µM i-CDK9,52%
same,remaining binding at 1 µM,IKK-alpha; 1 µM i-CDK9,85%
same,remaining binding at 10 µM,IKK-alpha; 10 µM i-CDK9,71%
same,remaining binding at 1 µM,IKK-beta; 1 µM i-CDK9,100%
same,remaining binding at 10 µM,IKK-beta; 10 µM i-CDK9,87%
same,remaining binding at 1 µM,IRAK3; 1 µM i-CDK9,100%
same,remaining binding at 10 µM,IRAK3; 10 µM i-CDK9,88%
same,remaining binding at 1 µM,LIMK1; 1 µM i-CDK9,90%
same,remaining binding at 10 µM,LIMK1; 10 µM i-CDK9,100%
same,remaining binding at 1 µM,MAP3K15; 1 µM i-CDK9,100%
same,remaining binding at 10 µM,MAP3K15; 10 µM i-CDK9,100%
same,remaining binding at 1 µM,MAP4K4; 1 µM i-CDK9,65%
same,remaining binding at 10 µM,MAP4K4; 10 µM i-CDK9,19%
same,% Retention on Solid Support,MKK7,100%
same,% Retention on Solid Support,MST1; 1 µM i-CDK9,100%
same,% Retention on Solid Support,MST1; 10 µM i-CDK9,100%
same,remaining binding at 1 µM,MST1R; 1 µM i-CDK9,100%
same,remaining binding at 10 µM,MST1R; 10 µM i-CDK9,100%
same,% Retention on Solid Support,MST3; 1 µM i-CDK9,83%
same,% Retention on Solid Support,MST3; 10 µM i-CDK9,90%
same,remaining binding at 1 µM,PFPK5(P.falciparum),100%
same,remaining binding at 1 µM,PIK3CA(E545A); 1 µM i-CDK9,100%
same,remaining binding at 10 µM,PIK3CA(E545A); 10 µM i-CDK9,100%
same,remaining binding at 1 µM,PIK3CG; 1 µM i-CDK9,100%
same,remaining binding at 10 µM,PIK3CG; 10 µM i-CDK9,100%
same,remaining binding at 1 µM,PIM3; 1 µM i-CDK9,100%
same,remaining binding at 10 µM,PIM3; 10 µM i-CDK9,23%
same,remaining binding at 1 µM,PRKCD; 1 µM i-CDK9,98%
same,remaining binding at 10 µM,PRKCD; 10 µM i-CDK9,70%
same,remaining binding at 1 µM,[2]; 1 µM i-CDK9,100%
same,remaining binding at 10 µM,[2]; 10 µM i-CDK9,82%
same,remaining binding at 1 µM,SRPK1; 1 µM i-CDK9,100%
same,remaining binding at 10 µM,SRPK1; 10 µM i-CDK9,70%
same,remaining binding at 1 µM,TRKC; 1 µM i-CDK9,63%
same,remaining binding at 10 µM,TRKC; 10 µM i-CDK9,95%
same,% Retention on Solid Support,[3]; 1 µM i-CDK9,62%
same,% Retention on Solid Support,[3]; 10 µM i-CDK9,100%
